Assay [1] addresses Sphingosine 1-phosphate receptor 2 (Homo sapiens, UniProt O95136). Nature of the assay: Dose Response Cell Based Assay for Antagonists of the S1P2 Receptor. [Related pubchem assays: 856, 736 ]. The assay is classed as functional.
Assay [2] has as its target Luciferin 4-monooxygenase (Photinus pyralis, UniProt P08659). Nature of the assay: Counter Screen for Luciferase-based Assay Positives. [Related pubchem assays: 620, 618, 411 ]. On the technique in general: Counterscreens check selectivity or assay interference.
The subject of another assay is HT-1080. Nature of the assay: HT1080 cell viability loss – fluorescence readout (AID 620). As to conditions: Homo sapiens. Type of assay: functional, cell-based.
Assay [3] concerns the target T1, Sphingosine 1-phosphate receptor 4 (Homo sapiens, UniProt O95977).
T1 sequence (O95977 whole entry): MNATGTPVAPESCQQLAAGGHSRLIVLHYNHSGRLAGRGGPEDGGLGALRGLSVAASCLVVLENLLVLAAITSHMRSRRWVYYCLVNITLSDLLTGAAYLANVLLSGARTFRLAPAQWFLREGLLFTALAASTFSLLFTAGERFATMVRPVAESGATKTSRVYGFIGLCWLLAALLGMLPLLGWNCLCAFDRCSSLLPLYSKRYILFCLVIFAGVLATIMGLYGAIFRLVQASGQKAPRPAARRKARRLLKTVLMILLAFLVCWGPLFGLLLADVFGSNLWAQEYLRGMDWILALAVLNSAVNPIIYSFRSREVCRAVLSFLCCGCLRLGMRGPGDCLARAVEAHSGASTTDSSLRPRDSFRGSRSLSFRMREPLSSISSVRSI
Nature of the assay: Late stage fluorescence dose response cell-based screening assay for antagonists of the Sphingosine 1-Phosphate Receptor 4 (S1P4). [Related pubchem assays: 1524 (Confirmation screen (S1P4 antagonists).), 1510 (Primary screen (S1P4 antagonists).), 1853 (Summary AID (S1P4 antagonists).), 1692 (Dose response screen (S1P4 antagonists).)]. The assay is classed as functional.

Assay [4] has as its target T1, Sphingosine 1-phosphate receptor 4. Nature of the assay: Fluorescence dose response cell-based high throughput screening assay for antagonists of the Sphingosine 1-Phosphate Receptor 4 (S1P4). [Related pubchem assays: 1524 (Confirmation in triplicates.), 1510 (Primary screen.)]. Type of assay: functional.
Assay [5] has as its target Sphingosine 1-phosphate receptor 1 (Homo sapiens, UniProt P21453). The assay is classed as functional.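 Also: Tango beta-arrestin reporter U2OS cells stimulated with S1P near its EC80; inhibitor potency meaning antagonism of receptor activation by the natural agonist.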
In assay [6] the target is T2, Replicative DNA helicase DnaB (Mycobacterium tuberculosis, UniProt P9WMR3).
T2 sequence (P9WMR3 whole entry): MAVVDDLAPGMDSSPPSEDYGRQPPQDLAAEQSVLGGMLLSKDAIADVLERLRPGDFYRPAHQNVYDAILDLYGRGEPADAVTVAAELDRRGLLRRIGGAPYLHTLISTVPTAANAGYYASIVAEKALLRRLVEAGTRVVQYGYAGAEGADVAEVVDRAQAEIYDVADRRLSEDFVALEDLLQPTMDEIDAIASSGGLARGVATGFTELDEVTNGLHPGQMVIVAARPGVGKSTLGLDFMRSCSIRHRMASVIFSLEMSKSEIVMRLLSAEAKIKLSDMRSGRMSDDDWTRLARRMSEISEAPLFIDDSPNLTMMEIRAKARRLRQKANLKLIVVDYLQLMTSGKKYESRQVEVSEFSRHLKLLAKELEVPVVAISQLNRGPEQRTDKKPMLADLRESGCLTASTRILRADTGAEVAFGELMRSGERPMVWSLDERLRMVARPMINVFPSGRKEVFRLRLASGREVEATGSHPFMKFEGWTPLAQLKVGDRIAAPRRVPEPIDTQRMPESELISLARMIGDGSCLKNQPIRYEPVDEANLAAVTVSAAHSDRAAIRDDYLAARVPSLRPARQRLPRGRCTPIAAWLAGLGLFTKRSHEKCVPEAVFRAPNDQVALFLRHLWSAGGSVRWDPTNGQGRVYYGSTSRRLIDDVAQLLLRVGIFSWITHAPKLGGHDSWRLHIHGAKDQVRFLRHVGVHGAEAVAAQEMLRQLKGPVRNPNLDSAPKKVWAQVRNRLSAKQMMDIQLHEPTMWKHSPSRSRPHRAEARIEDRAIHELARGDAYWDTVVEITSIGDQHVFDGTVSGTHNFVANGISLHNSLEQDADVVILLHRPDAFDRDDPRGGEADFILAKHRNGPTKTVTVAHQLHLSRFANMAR
Nature of the assay: DnaB intein splicing inhibitors, dose response, biochemical, cell-free fluorescence (AID 449749). Type of assay: functional.

A further assay addresses T3, Protein RecA (Mycobacterium tuberculosis, UniProt P9WHJ3).
T3 sequence (P9WHJ3 whole entry): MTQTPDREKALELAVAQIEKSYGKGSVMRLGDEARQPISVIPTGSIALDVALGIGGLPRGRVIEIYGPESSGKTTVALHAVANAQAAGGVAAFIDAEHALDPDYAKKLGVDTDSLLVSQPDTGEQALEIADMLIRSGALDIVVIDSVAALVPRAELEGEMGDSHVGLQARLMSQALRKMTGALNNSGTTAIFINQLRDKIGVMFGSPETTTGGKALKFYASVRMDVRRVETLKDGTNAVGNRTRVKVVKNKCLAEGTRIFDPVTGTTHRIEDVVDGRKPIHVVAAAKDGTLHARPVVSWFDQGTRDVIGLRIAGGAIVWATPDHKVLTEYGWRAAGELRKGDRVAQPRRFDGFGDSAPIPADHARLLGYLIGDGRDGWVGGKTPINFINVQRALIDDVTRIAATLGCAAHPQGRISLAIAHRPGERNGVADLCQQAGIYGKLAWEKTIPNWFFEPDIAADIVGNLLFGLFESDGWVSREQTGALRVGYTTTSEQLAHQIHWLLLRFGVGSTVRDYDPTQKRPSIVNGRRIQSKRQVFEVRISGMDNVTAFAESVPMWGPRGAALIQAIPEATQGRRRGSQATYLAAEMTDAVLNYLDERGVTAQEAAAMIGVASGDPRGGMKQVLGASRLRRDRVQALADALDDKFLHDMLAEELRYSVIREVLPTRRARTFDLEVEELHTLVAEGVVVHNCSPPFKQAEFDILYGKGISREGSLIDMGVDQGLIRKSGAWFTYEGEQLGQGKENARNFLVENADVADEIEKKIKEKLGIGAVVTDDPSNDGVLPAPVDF
Nature of the assay: Fluorescence Cell-Free Homogeneous Dose Retest to Identify Inhibitors of RecA-Intein Splicing Activity. [Related pubchem assays (depositor defined):AID2097, AID2223, AID489010, AID492950]. The assay is classed as functional.

The next assay concerns the target Genome polyprotein (Hepatitis C virus, UniProt Q2Q167). Nature of the assay: disruption of hepatitis C core self-association – biochemical, TR-FRET, dose response (AID 2159).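 Also: blocks dimerization of HCV core protein measured by TR-FRET between tagged core106 pairs.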 Details: species or system Hepacivirus hominis. (In general: Time-resolved FRET reads energy transfer from a long-lived donor to a nearby acceptor.)
In assay [7] the target is Induced myeloid leukemia cell differentiation protein Mcl-1 (Homo sapiens, UniProt Q07820). Nature of the assay: blockers of MCL1 binding to BIM peptide – biochemical, fluorescence polarization, BIM-BH3 peptide, 1536-well, dose response (AID 2217).
Sequence of Induced myeloid leukemia cell differentiation protein Mcl-1 (Q07820 whole entry): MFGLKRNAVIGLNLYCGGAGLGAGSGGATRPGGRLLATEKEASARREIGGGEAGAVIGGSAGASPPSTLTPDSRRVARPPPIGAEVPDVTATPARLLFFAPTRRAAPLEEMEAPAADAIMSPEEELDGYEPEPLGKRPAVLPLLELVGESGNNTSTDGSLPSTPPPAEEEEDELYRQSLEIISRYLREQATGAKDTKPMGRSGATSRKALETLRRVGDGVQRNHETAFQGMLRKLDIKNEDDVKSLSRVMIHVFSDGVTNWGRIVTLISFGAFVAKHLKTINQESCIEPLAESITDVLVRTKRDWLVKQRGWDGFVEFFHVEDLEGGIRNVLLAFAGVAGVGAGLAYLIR
The target of a further assay is Bcl-2-like protein 1 (Homo sapiens, UniProt Q07817). Nature of the assay: blockers of BCLXL peptide binding – biochemical, fluorescence polarization, 1536-well, selectivity assay for MCL1 inhibitor project, dose response (AID 2218).
Sequence of Bcl-2-like protein 1 (Q07817 whole entry): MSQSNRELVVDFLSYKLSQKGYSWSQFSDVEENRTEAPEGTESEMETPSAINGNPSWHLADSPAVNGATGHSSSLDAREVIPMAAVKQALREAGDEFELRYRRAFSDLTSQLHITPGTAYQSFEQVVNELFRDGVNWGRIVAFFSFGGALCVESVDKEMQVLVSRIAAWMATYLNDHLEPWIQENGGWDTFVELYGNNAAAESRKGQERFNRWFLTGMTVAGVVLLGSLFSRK
In assay [8] the target is DNA (cytosine-5)-methyltransferase 1 (Homo sapiens, UniProt P26358). Nature of the assay: inhibition of DNA methylation by DNMT1 – biochemical, fluorescent molecular beacon, confirmation (AID 602386). The assay is classed as functional.
Sequence of DNA (cytosine-5)-methyltransferase 1 (P26358 whole entry): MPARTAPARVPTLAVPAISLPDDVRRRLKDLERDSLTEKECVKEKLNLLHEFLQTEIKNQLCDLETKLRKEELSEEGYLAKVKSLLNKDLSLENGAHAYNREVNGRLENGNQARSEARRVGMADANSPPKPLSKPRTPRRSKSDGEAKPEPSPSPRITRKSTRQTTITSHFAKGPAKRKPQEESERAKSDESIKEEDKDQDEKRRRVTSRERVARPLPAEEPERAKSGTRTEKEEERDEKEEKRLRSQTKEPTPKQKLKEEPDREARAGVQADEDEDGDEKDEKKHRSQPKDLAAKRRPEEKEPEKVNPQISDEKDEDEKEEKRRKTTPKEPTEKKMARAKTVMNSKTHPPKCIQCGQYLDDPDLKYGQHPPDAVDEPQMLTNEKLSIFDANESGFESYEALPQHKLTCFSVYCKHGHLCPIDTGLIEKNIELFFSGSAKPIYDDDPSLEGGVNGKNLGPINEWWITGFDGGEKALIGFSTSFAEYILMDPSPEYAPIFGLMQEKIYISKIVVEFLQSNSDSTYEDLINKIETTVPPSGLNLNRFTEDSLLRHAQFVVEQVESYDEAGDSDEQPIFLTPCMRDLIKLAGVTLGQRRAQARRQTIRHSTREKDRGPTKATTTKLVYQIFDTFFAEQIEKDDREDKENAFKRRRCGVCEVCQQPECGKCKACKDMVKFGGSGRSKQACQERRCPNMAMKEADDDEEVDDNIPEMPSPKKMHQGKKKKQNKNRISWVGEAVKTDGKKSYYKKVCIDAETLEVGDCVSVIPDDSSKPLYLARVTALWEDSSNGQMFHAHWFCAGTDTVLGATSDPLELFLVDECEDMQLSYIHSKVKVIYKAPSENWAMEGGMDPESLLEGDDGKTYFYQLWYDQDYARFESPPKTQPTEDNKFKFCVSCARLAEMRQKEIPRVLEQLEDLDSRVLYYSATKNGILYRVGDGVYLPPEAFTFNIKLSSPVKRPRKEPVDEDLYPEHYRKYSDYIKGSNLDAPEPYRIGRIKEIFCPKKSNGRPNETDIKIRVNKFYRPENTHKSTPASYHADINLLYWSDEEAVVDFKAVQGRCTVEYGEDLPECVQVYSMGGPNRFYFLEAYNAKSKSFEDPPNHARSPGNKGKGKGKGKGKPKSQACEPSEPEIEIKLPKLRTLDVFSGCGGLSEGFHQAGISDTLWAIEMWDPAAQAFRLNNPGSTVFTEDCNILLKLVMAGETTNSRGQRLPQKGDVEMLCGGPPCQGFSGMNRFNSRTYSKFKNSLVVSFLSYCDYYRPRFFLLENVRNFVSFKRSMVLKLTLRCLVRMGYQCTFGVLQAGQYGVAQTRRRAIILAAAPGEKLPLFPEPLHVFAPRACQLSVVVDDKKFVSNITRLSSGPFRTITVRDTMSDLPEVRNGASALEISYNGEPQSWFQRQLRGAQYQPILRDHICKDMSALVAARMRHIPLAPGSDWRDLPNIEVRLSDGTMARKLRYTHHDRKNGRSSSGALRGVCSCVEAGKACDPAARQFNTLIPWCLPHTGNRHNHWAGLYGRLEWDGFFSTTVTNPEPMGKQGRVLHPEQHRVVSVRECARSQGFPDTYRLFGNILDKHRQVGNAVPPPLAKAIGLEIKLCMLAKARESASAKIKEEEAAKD
Assay [9] deals with T4, Small ubiquitin-related modifier 1 (Homo sapiens, UniProt P63165). Nature of the assay: SUMO1 protein interaction blockers, potency – biochemical, fluorescence polarization, uHTS hits, dose response (AID 624382). As to conditions: read-out: IC50_Mean. Type of assay: functional. Background: Polarisation of emitted light reports the rotation of a fluorescent probe.
T4 sequence (P63165 whole entry): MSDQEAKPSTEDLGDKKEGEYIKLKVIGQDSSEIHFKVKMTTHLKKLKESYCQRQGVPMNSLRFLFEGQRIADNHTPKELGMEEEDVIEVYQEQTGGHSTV
Assay [10] deals with T4, Small ubiquitin-related modifier 1. Nature of the assay: SUMO1 protein-protein binding blockers, potency – biochemical, FRET, dose response (AID 624383). The assay is classed as functional. As to conditions: read-out: IC50_Mean.
A further assay concerns the target Albumin (Bos taurus, UniProt P02769). Nature of the assay: Counterscreen for inhibitors of T-cell receptor (TCR)-CD3 interaction: Fluorescence-based biochemical high throughput dose response assay to identify inhibitors of T-cell receptor (TCR)-CD3 interaction using a TAMRA-labeled BSA probe. Type of assay: functional.
For assay [11], the target named is T5, Eukaryotic translation initiation factor 2-alpha kinase 3 (Homo sapiens, UniProt Q9NZJ5).
T5 sequence (Q9NZJ5 whole entry): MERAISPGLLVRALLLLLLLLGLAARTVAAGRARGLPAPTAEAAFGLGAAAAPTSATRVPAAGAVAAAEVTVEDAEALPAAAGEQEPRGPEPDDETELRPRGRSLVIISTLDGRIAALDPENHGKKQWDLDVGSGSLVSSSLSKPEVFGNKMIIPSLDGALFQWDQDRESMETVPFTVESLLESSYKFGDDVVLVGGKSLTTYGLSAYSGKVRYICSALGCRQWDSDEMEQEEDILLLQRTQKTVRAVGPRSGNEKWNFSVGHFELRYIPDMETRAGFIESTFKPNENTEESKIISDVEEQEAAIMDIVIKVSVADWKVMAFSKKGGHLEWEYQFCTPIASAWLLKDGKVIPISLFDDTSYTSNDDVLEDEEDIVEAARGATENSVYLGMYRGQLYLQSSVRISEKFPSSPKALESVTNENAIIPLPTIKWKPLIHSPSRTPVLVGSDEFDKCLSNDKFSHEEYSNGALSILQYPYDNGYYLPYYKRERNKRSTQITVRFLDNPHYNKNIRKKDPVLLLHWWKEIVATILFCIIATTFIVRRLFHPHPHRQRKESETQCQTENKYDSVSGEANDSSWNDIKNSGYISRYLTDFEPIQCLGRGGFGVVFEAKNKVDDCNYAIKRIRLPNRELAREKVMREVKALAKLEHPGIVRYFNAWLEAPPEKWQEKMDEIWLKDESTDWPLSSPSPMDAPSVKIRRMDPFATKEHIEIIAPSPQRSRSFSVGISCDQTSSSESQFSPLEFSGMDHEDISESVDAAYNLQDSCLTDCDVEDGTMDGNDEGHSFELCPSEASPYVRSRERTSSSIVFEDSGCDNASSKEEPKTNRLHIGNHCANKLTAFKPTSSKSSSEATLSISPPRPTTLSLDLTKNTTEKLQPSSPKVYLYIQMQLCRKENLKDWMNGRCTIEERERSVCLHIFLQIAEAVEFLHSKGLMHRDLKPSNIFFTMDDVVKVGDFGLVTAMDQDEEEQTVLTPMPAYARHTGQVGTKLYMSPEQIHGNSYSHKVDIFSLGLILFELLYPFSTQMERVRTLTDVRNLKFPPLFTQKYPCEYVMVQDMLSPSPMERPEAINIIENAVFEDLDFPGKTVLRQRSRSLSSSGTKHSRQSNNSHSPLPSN
Nature of the assay: Dose response cell-based high-throughput screening assay to measure PERK inhibition. [Related pubchem assays: 1416 ]. The assay is classed as functional.

The target in assay [12] is T5, Eukaryotic translation initiation factor 2-alpha kinase 3. Nature of the assay: Counterscreen assay for PERK inhibitors: Dose response cell-based high throughput screening assay to measure inhibition of PERK at 6 hours. [Related pubchem assays: 1522, 1416 ]. The assay is classed as functional.
The nature of assay [13]: M. tuberculosis growth inhibition, HTS (AID 449762). Type of assay: functional.
A short description of assay [14]: THP-1 cell cytotoxicity, dose response, cytotoxicity control for non-replicating M. tuberculosis project (AID 489025). Type of assay: functional.

The values that follow come from ChEMBL document CHEMBL1201862, “PubChem BioAssay data set” (2004).

Active and inactive are the calls of the source.

Sequence of Albumin (P02769 whole entry): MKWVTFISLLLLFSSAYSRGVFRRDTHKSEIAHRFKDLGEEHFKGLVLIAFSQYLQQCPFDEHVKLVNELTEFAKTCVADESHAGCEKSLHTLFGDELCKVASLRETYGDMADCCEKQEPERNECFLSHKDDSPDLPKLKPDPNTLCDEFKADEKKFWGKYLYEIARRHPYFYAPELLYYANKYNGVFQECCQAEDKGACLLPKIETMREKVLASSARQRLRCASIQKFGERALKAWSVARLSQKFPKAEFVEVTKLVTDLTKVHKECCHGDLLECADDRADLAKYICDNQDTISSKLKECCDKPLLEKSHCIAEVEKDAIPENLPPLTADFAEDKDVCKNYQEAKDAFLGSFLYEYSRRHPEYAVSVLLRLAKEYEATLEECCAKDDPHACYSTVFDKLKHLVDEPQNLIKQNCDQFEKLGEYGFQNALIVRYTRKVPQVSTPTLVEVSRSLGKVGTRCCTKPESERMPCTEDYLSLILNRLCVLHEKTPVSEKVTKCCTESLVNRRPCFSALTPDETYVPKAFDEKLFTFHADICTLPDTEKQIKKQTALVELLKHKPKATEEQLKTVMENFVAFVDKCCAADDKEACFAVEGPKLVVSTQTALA
Sequence of Sphingosine 1-phosphate receptor 1 (P21453 whole entry): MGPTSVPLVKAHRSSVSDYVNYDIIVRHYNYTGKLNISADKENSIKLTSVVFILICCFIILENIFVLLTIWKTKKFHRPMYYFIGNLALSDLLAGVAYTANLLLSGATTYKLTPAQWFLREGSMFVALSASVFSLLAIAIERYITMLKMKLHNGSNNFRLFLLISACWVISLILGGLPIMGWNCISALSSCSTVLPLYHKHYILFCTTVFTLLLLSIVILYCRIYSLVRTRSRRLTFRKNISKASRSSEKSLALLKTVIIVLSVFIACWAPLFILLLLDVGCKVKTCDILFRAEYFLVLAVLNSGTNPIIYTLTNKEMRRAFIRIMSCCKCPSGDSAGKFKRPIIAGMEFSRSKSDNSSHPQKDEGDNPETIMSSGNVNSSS
Sequence of Sphingosine 1-phosphate receptor 2 (O95136 whole entry): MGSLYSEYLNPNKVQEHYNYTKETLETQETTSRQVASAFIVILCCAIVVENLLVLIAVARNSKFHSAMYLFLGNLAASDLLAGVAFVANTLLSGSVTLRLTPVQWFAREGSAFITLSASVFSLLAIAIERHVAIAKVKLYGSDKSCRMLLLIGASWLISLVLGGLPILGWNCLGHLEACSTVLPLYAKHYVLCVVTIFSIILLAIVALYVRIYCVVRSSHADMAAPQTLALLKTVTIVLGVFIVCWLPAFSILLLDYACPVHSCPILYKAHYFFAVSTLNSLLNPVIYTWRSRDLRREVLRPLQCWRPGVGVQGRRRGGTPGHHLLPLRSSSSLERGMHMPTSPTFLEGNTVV
Sequence of Luciferin 4-monooxygenase (P08659 whole entry): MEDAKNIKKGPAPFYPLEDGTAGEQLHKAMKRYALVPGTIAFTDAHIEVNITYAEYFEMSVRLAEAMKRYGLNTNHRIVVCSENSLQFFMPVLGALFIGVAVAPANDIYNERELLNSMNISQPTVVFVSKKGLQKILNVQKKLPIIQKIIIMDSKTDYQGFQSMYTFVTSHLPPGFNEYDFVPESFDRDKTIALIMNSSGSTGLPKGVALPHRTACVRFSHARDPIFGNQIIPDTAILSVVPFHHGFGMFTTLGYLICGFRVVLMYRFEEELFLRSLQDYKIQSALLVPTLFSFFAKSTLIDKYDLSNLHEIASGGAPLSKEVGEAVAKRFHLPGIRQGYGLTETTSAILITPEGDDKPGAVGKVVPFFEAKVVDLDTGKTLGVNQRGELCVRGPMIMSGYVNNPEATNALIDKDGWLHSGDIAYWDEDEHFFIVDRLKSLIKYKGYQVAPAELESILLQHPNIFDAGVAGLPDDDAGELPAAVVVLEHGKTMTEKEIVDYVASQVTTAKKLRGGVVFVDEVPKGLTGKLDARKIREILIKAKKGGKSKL
Sequence of Genome polyprotein (Q2Q167 whole entry): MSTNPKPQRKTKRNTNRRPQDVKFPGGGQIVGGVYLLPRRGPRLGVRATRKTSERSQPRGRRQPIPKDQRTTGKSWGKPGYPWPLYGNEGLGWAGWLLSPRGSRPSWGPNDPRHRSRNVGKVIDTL

Broadly, the EC50 is the midpoint of the concentration-response curve. As usually defined, the AC50 is the midpoint of the concentration-response curve, whichever way the signal moves. On to `COc1ccc(NC(=O)/C(Cl)=C(/Cl)S(=O)(=O)Cc2ccc(C)cc2)cn1`, for which the IC50 in [1] was 1.48 µM (active); in assay [3] it was 15.4 µM (not active); in [4], 0.564 µM (active); in assay [5] it was 7.07 µM (active). In addition, the EC50 in assay [2] was < 0.2 µM (active); with HT-1080, 18.8 µM (active); at Protein RecA it was 2.71 µM (active). Further, the AC50 in assay [6] was 4.27 µM (active).
As for `O=C1COc2ccc(C(=O)COC(=O)/C=C/c3ccc(Br)o3)cc2N1`, the IC50 against Genome polyprotein is > 49.8 µM (not active); in assay [7], > 4.03 µM (active); at Bcl-2-like protein 1, > 109 µM (not active); in assay [8], 12.2 µM (active); in assay [9], > 66.6 µM (inactive); in assay [10] it was 4.57 µM (active). Besides, the IC50 at Albumin is > 94.1 µM (inactive).
For orientation: CC50 means the concentration at which the toxic effect on the cells reaches its halfway point. Regarding `O=Cc1ccc(-c2ccc(Cl)cc2Cl)[nH]1`, the EC50 in assay [11] and in assay [12] was > 55.7 µM (not active) in each case. Moreover, in [13], the IC50 was > 100 µM (active). The CC50 in assay [14] is > 40 µM (active).
